The text below walks through data of patent publication US20210154281A1, “CELL-BASED CANCER VACCINES AND CANCER THERAPIES” (Massachusetts Institute of Technology, priority 2019, published 2021).

One data set has as its system MC-38-Ova cells. Description: In vitro cross presentation assay: drug-treated MC-38-Ova cells, BMDC and OT-1 CD8+ T-cells. The class given is cell-based, mouse. The method, then: (§1) B16-Ova or MC-38 Ova cells were treated with various doses of chemotherapeutic drugs for 24 h followed by extensive washing in IMDM (10% FBS, P/S). Subsequently 1×10^6 treated cells were co-cultured with 2.5×10^5 BMDC per well of a 24-well plate for each condition tested. After 24 hours of co-culture, supernatants were removed from each well and the BMDC washed 2-3 times in T-cell media (RPMI containing 10% FBS, 20 mM HEPES, 1 mM sodium pyruvate, 55 uM b-mercaptoethanol, 2 mM L-glutamine, nonessential amino acids and antibiotics). CD8+OT-I T-cells isolated from spleens of OT-I mice were then co-cultured with the BMDC at 125,000 T-cells per well to achieve an effector to target ratio of 0.5. Where indicated, BMDC and/or T-cells were also exposed to chemotherapy drugs. After a 12-15 h incubation, IFN-g producing T-cells were identified and quantified by intra-cellular cytokine staining and flow cytometry using a BD LSR II or Fortessa flow cytometer. Cells were first gated for CD3 expression, then re-gated for CD8 and IFNg expression.

A further data set has as its system p38MAPK. In words: Western blotting of cell lysates with anti-phospho-p38 antibody. The class given is cell-based, mouse. Conditions: B16-Ova cells.
Data set [1] deals with B16-Ova cells. In words: Calreticulin surface exposure by flow cytometry. The note with it: for CALR (%): 24 hours after treatment, representative experiment. (In general: Flow cytometry measures light scatter and fluorescence of single cells or particles in a stream.)
Data set [2] concerns CT26 mouse colon cancer cells. The note with it: previously reported; cited from earlier work.
Data set [3] deals with B16-Ova cells. Description: ATP levels in cell-free culture media by CellTiter-Glo. The class given is cell-based, mouse. Conditions: for ATP (nM) MEAN: culture media 24-48 hours after treatment. The method, then:
For measurement of ATP levels, cell-free culture media obtained as above was analyzed by CellTiter-Glo according to the manufacturer's protocol. Values were converted to ATP concentrations using a standard curve generated using pure ATP.
In general terms: In ATP-based viability assays light output follows the ATP content of the culture.

Data set [4] in a line: Cell viability (survival) assay with CellTiter-Glo, 48 hours. The class given is cell-based, mouse. Conditions: mouse, B16F10 melanoma tumor cells, 48 hours, normalized to DMSO-treated control cells. How it is done: (§2) For assays of survival, 15,000 cells were plated per well in a 96-well plate in 100 μl media with 5 replicates per condition. Wells along the four edges of the plate were not used. Following cell attachment, the indicated drugs were added in an equal volume of media, and incubated for an additional 48 hours. The media was then removed and replaced with 100 ul of fresh media at room temperature. Following a 30 minute incubation at room temperature, 50 μl of CellTiter-Glo reagent was added, followed by 2 minutes of gentle mixing. The plate was incubated at room temperature for an additional 10 minutes. 100 μl of supernatant was transferred to a 96-well white opaque plate and luminescence was read on a Tecan microplate reader. Values were normalized to those of DMSO-treated control cells.

The test system of data set [5] is B16-Ova cells. In words: HMGB1 in cell culture media by ELISA. The class given is cell-based, mouse. The note with it: for HMGB1 (ng/ml) MEAN: culture media 24-48 hours after treatment. The method, then: Cell-free cell culture media was then analyzed by ELISA for HMGB1 according to the manufacturer's protocol.
Data set [6] relates to B16F10 melanoma tumor cell line. In words: Cell death by AnnexinV/DAPI staining 48 hours after drug treatment. The class given is cell-based, mouse. Conditions: for cell death by DAPI and Annexin V staining: at the concentrations used. The method, then: For assessment of cell death, floating and attached cells were harvested after 48 hours of treatment with the indicated chemotherapeutic drugs. Attached cells were detached using 5 mM EDTA in PBS. The recovered cells were centrifuged at 250×g for 5 minutes, washed once in PBS containing 0.9 mM Ca2+ and 0.5 mM Mg2+ and then stained with AnnV-FITC for 15 minutes in Annexin binding buffer at room temperature according to the manufacturer's protocol (Biolegend). Cells were co-stained with DAPI at a final concentration of 1 μg/ml for 2 minutes in Annexin binding buffer, brought to a final volume of 500 ul using PBS containing 0.9 mM Ca2^+ and 0.5 mM Mg2^+ and analyzed by flow cytometry.
To identify how DNA-damaging chemotherapy could be optimally used to enhance anti-tumor immune function, cytotoxicity assays were performed using the B16F10 melanoma tumor cell line expressing ovalbumin (B16-Ova). Cells were treated with clinically used chemotherapeutic agents followed by assaying for cell death by DAPI and Annexin V staining 48 hours later.

Data set [7] relates to B16-Ova cells. Description: In vitro cross presentation assay: drug-treated B16-Ova cells, BMDC and OT-1 CD8+ T-cells, IFN-γ+ T-cells by flow cytometry. The class given is cell-based, mouse. The method, then:
as §1
An experimental system was developed to assess dendritic cell-mediated T-cell priming using the B16-Ova cells, in combination with primary bone-marrow derived dendritic cells (BMDC) and OT-I CD8+ T-cells expressing a TCR transgene that specifically recognizes the Ova-derived peptide […] (SEQ ID NO:1) in the context of H2-Kb (OT-1) (Clarke, et al., Immunol Cell Biol., 78(2):110-7 (2000); Hogquist, et al., Cell, 76(1):17-27 (1994)). […] The treated B16-Ova cells/BMDC co-culture was then incubated with purified CD8+ T-cells obtained from the spleens of OT-1 mice, and the appearance of IFNg+CD8 T-cells was measured 12-15 hours later by intracellular staining and subsequent quantification using flow cytometry.

Data set [8] has as its system B16F10 melanoma tumor cell line. In words: Cell viability (survival) assay with CellTiter-Glo, 48 hours. In kind it is cell-based, mouse. The note with it: at the concentrations used. How it is done:
as §2

The mark [9] stands for this setting: Mus musculus, B16-F10, 48 hours, read-out: AnnV+DAPI+ (%) Mean.
Setting [10] is: Mus musculus, B16-F10, 48 hours, read-out: AnnV+DAPI− (%) Mean.
[11] abbreviates: Mus musculus, B16-F10, 48 hours, read-out: AnnV−DAPI+ (%) Mean.
Where [12] appears, read: Mus musculus, B16-F10, 48 hours, read-out: AnnV−DAPI− (%) Mean.

The structures appear in SMILES notation. Where two headings read alike, the source gives them in different places.

As for `COc1cccc2c1C(=O)c1c(O)c3c(c(O)c1C2=O)C[C@@](O)(C(=O)CO)C[C@@H]3O[C@H]1C[C@H](N)[C@H](O)[C@H](C)O1` [Dox, doxorubicin], the “% CD3+CD8+IFN-γ+ T-cells MEAN” value with MC-38-Ova cells (MC-38-Ova cells treated with 10 uM for 24 h) turned out to be 1.217%; in the data set on MC-38-Ova cells (MC-38-Ova cells treated with 50 uM for 24 h) it was 0.08667%; in the data set with B16-Ova cells [7] (B16-Ova cells treated with 10 uM for 24 h), 0.13%; with B16-Ova cells [7] (B16-Ova cells treated with 50 uM for 24 h) it was 0.28%. Besides, the p38MAPK activation entry in the data set on p38MAPK is on record as “p38MAPK activation”. Also, the results for the “CALR (%)” value with B16-Ova cells [1] (10 uM) and in the data set with B16-Ova cells [1] (50 uM) were 4.97% and 2.82%, respectively. Further, the “level of externalized calreticulin” value with B16-Ova cells [1] (24 hours of drug exposure) was “lowest levels”. Moreover, the “immunogenic cell death / calreticulin exposure” value in data set [2] is “induce calreticulin exposure”. For the same molecule, the “ATP (nM) MEAN” value in the data set on B16-Ova cells [3] (10 uM) is given as 1.11 nM; in the data set with B16-Ova cells [3] (50 uM), 0.83 nM. Besides, the ATP release entry in the data set on B16-Ova cells [3] (after 24 hours of treatment) was “Substantial ATP release”. Moreover, in data set [4] (10 uM), the viability at 48 h, 10 µM is 0.505%. In addition, in [4] (50 uM), the viability at 48 h, 50 µM amounted to 0.126%. Besides, the “HMGB1 (ng/ml) MEAN” value was found to be 77.83 ng/mL with B16-Ova cells [5] (10 uM) and 57.75 ng/mL with B16-Ova cells [5] (50 uM). For the same molecule, the “HMGB1 release into the media” value with B16-Ova cells [5] (24-48 hours post-treatment window) is reported as “high levels of HMGB1 release”. Besides, in [6] (10 μM and 50 μM), the cell death entry is “high levels of cell death”. Moreover, the “cell death by DAPI and Annexin V staining” value in [6] (48 hours) is “caused varying extents of apoptotic and non-apoptotic cell death”. The cytotoxicity at 10 µM in data set [6] (Mus musculus, B16-F10, 10 uM, 48 hours, read-out: AnnV+DAPI+ (%) Mean) turned out to be 48%; in data set [6] (Mus musculus, B16-F10, 10 uM, 48 hours, read-out: AnnV+DAPI− (%) Mean) it was 31.6%; in data set [6] (Mus musculus, B16-F10, 10 uM, 48 hours, read-out: AnnV−DAPI+ (%) Mean) it was 0.04%. Further, the viability at 10 µM in [6] (Mus musculus, B16-F10, 10 uM, 48 hours, read-out: AnnV−DAPI− (%) Mean) was determined as 20.4%. Further, the cytotoxicity at 50 µM worked out at 52.1% in [6] (Mus musculus, B16-F10, 50 uM, 48 hours, read-out: AnnV+DAPI+ (%) Mean); 27.1% in data set [6] (Mus musculus, B16-F10, 50 uM, 48 hours, read-out: AnnV+DAPI− (%) Mean); 0.04% in data set [6] (Mus musculus, B16-F10, 50 uM, 48 hours, read-out: AnnV−DAPI+ (%) Mean). Further, the viability at 50 µM in [6] (Mus musculus, B16-F10, 50 uM, 48 hours, read-out: AnnV−DAPI− (%) Mean) came to 20.8%. In addition, the activating cells entry is recorded as “effective at activating cells” in the data set on B16-Ova cells [7] (0.5 μM and 1.0 μM); “not effective at activating cells” in the data set with B16-Ova cells [7] (10 μM and 50 μM). Besides, the “inducing DC-mediated IFN-γ in T-cells” value in the data set on B16-Ova cells [7] (10 and 50 uM (Table 3, Table 4)) is recorded as “ineffective”. In addition, the “IFN-gamma production in CD8+ T-cells” value with B16-Ova cells [7] (specific doses) is “promote IFN-gamma production in CD8+ T-cells”.

As to `CC(=O)O[C@H]1C(=O)[C@@]2(C)[C@H]([C@H](OC(=O)c3ccccc3)[C@]3(O)C[C@H](OC(=O)[C@H](O)[C@@H](NC(=O)c4ccccc4)c4ccccc4)C(C)=C1C3(C)C)[C@]1(OC(C)=O)CO[C@@H]1C[C@@H]2O` [Pac, paclitaxel], the viability at 48 h, 0.2 µM in [4] (0.2 uM) was 69.8%. Besides, in data set [4], the viability at 48 h, 1 µM is 74%. Also, the growth arrest entry in [8] is listed as “caused some degree of growth arrest”. Moreover, the “cell death by DAPI and Annexin V staining” value in data set [6] (48 hours) is given as “did not induce substantial amounts of cell death”. Also, the cytotoxicity at 0.2 µM was found to be 4.79% in data set [6] (Mus musculus, B16-F10, 200 nM, 48 hours, read-out: AnnV+DAPI+ (%) Mean); 7.2% in data set [6] (Mus musculus, B16-F10, 200 nM, 48 hours, read-out: AnnV+DAPI− (%) Mean); 2.18% in data set [6] (Mus musculus, B16-F10, 200 nM, 48 hours, read-out: AnnV−DAPI+ (%) Mean). The viability at 0.2 µM in [6] (Mus musculus, B16-F10, 200 nM, 48 hours, read-out: AnnV−DAPI− (%) Mean) was found to be 85.8%. Moreover, the cytotoxicity at 1 µM in data set [6] (setting [9]) is 2.98%; in data set [6] (setting [10]) it was 3.03%; in data set [6] (setting [11]), 2.79%. Further, the viability at 1 µM in data set [6] (setting [12]) amounted to 91.2%.

With `CCc1c2c(nc3ccc(OC(=O)N4CCC(N5CCCCC5)CC4)cc13)-c1cc3c(c(=O)n1C2)COC(=O)[C@]3(O)CC` [Iri, irinotecan], the viability at 48 h, 0.25 µM in data set [4] (0.25 uM) was determined as 99.8%. In addition, the viability at 48 h, 1 µM in [4] was determined as 97.9%. The same molecule came in with a viability at 48 h, 0.05 uM in [4] (.05 uM) of 96.8%. In data set [8], the growth arrest result is “caused some degree of growth arrest”. Also, the cytotoxicity at 0.05 µM in data set [6] (Mus musculus, B16-F10, 50 nM, 48 hours, read-out: AnnV+DAPI+ (%) Mean) came to 3.79%; in data set [6] (Mus musculus, B16-F10, 50 nM, 48 hours, read-out: AnnV+DAPI− (%) Mean) it was 0.36%; in data set [6] (Mus musculus, B16-F10, 50 nM, 48 hours, read-out: AnnV−DAPI+ (%) Mean) it was 1.87%. In addition, the viability at 0.05 µM in data set [6] (Mus musculus, B16-F10, 50 nM, 48 hours, read-out: AnnV−DAPI− (%) Mean) was 94%. Also, the cytotoxicity at 0.25 µM was 5.06% in data set [6] (Mus musculus, B16-F10, 250 nM, 48 hours, read-out: AnnV+DAPI+ (%) Mean); 0.54% in data set [6] (Mus musculus, B16-F10, 250 nM, 48 hours, read-out: AnnV+DAPI− (%) Mean); 1.63% in [6] (Mus musculus, B16-F10, 250 nM, 48 hours, read-out: AnnV−DAPI+ (%) Mean). For the same molecule, the viability at 0.25 µM in data set [6] (Mus musculus, B16-F10, 250 nM, 48 hours, read-out: AnnV−DAPI− (%) Mean) is 92.8%. The cytotoxicity at 1 µM in data set [6] (setting [9]) came out at 6.38%; in data set [6] (setting [10]) it was 1.74%; in data set [6] (setting [11]), 0.89%. The viability at 1 µM in data set [6] (setting [12]) was 91%.
